In PubChem BioAssay AID1259321 (Sanford-Burnham Center for Chemical Genomics, 2017):
Active and inactive are the calls of the source.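 How the source made its calls: active means half-maximal concentration for changing protein binding to DNA, from the fitted dose curve, below 10 micromolar; inactive means the rest.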

biological target: Nuclear receptor subfamily 1 group D member 1 (Homo sapiens) (UniProt P20393); experiment: Rev-erbα–DNA interaction modulators – biochemical, FITC-DNA, fluorescence polarization, dose response (AID 1259321); settings: Rev-erb alpha-FITC-DNA binding
Sequence (P20393 whole entry, looked up): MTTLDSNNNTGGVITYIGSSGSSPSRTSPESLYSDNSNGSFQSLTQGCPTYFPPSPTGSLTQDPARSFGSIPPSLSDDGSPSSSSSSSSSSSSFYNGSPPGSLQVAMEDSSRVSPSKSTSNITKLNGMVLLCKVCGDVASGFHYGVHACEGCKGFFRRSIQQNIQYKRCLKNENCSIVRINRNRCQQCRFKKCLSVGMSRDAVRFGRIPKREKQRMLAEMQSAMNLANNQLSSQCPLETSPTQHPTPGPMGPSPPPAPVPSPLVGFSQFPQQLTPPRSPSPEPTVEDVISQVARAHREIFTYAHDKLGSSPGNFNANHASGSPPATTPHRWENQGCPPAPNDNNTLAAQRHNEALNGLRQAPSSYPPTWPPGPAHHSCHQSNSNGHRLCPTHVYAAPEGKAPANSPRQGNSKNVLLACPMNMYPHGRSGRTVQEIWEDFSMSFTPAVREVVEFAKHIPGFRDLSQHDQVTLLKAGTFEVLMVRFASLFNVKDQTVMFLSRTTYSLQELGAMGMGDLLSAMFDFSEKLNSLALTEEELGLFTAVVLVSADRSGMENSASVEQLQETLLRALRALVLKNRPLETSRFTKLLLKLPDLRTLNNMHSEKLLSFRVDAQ

Row | Compound | IC50
1 | Clc1nc2c(-c3ccccc3)nnn2c2ccccc12 | > 40 µM (inactive)
2 | Fc1c(F)c(C(F)(F)F)c(F)c(F)c1N1CCN(c2ccc3nnc(C(F)(F)F)n3n2)CC1 | 1.71 µM
3 | COC(=O)c1ccc(Cn2ccc3ccc(-c4ccc5ccn(C(=O)C6CCCCC6)c5c4)cc32)cc1 | 6.33 µM
4 | O=C(NCc1ccccc1)C(c1cccc2ccccc12)n1c(=O)c(-c2ccccc2)nc2ccccc21 (centres undefined) | 1.61 µM
5 | CCOC(=O)c1sc(NC(=O)c2ccc(S(=O)(=O)N(CC)CC)cc2)nc1C | inactive
6 | CCc1cc2cc3c(cc2nc1SCC(=O)Nc1c[nH]c(=O)[nH]c1=O)OCO3 | 2.22 µM
7 | Fc1ccc(-n2c(-c3cccs3)nc3nc4ccccc4nc32)cc1 | 4.41 µM
8 | Oc1ccc2ccc3cccc[n+]3c2c1 | > 40 µM (inactive)
9 | Cc1ccccc1OCC(=O)Nc1cccc2nsnc12 | 4.7 µM
10 | COc1cccc(C(=O)CSc2nnc(-c3cc(OC)cc(OC)c3)o2)c1 | inactive
11 | O=C(CCc1c[nH]c2ccccc12)NCCc1ccc2c(c1)OCCO2 | 1.08 µM
12 | COc1ccc(-c2c(C#N)c(SCC(N)=O)nc3c2CCCC3)cc1 | 3.93 µM
13 | Cc1cc(C)cc(NC(=S)/C(=C(\[O-])c2ccc(Cl)cc2Cl)[n+]2ccc(C(C)(C)C)cc2)c1 | > 40 µM (inactive)
14 | Cc1ccc2[nH]cc(S(=O)(=O)c3ccc(C)c(C)c3)c(=O)c2c1 | > 40 µM (inactive)
15 | Cc1cc(NC(=O)CSc2nc3c(C)ccc(C)c3cc2C#N)no1 | 3.19 µM
16 | CN1C(=O)C(=Cc2ccc(N3CCOCC3)o2)C(=O)N(C)C1=O | 1.36 µM
17 | O=c1c2ccccc2ncn1-c1ccc(Cl)c(Cl)c1 | > 40 µM (inactive)
18 | CCOc1ccccc1NC(=O)CSC1=C(C#N)C(c2ccco2)C(C(=O)Nc2nc3ccccc3s2)=C(C)N1 (centres undefined) | 4.49 µM
19 | O=[N+]([O-])c1cc(-c2cnc3ccccc3n2)ccc1Cl | 3.68 µM
20 | COC1C(CO)OC(n2c3c(Cl)cccc3c3c4c(c5c6cccc(Cl)c6[nH]c5c32)C(=O)NC4=O)C(O)C1O (centres undefined) | inactive
21 | O=C(Nc1nc(=O)c2ccccc2s1)c1ccc(F)cc1 | 1.57 µM
22 | COc1cc(/C=C(\C#N)c2nc3ccccc3[nH]2)cc(OC)c1O | inactive
23 | COc1ccc(-c2nn(C)c(=O)c3ccccc23)cc1NC(=O)COc1ccccc1 | 7.9 µM
24 | CCOc1ccc(CNC(=O)C2CCN(c3nnc(C)c4c(C)n(-c5ccc(C)cc5)nc34)CC2)cc1 | inactive
25 | COc1ccc2nc(SCc3cccnc3)c(C#N)cc2c1 | 2.51 µM
26 | CCOc1ccc(C(=O)Nc2nc(C)c(C(=O)OC)s2)cc1 | 2.2 µM
27 | COc1ccc2[nH]c(C(=O)Nc3ccccc3Cl)cc2c1 | > 40 µM (inactive)

Row | Compound | IC50
28 | O=C(COc1ncnc2ccc(Br)cc12)NCc1ccc2c(c1)OCO2 | 1.94 µM
29 | N#Cc1ccccc1Sc1ccccc1C(=O)OCC(=O)NC1CCCCC1 | inactive
30 | Cn1c(=O)c2c(nc(SCC(=O)c3cccs3)n2Cc2ccc(F)cc2)n(C)c1=O | > 40 µM (inactive)
31 | O=C(CSc1nc2ccccc2nc1N1CCCCC1)NCc1ccc(Cl)cc1Cl | 7.15 µM
32 | CCC(C)OC(=O)c1cc(C)nc2c(Br)cc(Br)cc12 (centres undefined) | 7.65 µM
33 | Cn1c(SCC(=O)Nc2cccc(F)c2)nnc1-c1cc2ccccc2o1 | inactive
34 | CCc1cccc(NC(=O)c2ccc(Cn3c(=O)[nH]c4ccsc4c3=O)cc2)c1 | inactive
35 | Cc1nn(C)c(C)c1N1C(=O)c2cccc3c(N)ccc(c23)C1=O | 1.13 µM
36 | O=C(c1cc2cc(Br)ccc2[nH]1)N1CCc2ccccc21 | 9.54 µM
37 | CC1(Cc2ccccc2OC(F)(F)F)C(=O)Nc2ccc(-c3ccsc3)cc21 (centres undefined) | 1.7 µM
38 | COC(=O)c1ccc(NC(=O)c2ccc3c(c2)C(=O)N(C)C3=O)cc1 | 4.43 µM
39 | O=c1c2ccccc2sc2ccc(Cl)cc12 | 3.38 µM
40 | CCc1nc(SCC(=O)Nc2ccc3c(c2)OCCO3)c2oc3ccccc3c2n1 | 1.3 µM
41 | Cc1ccc(C(=O)Nc2nc3ccccc3c(=O)s2)cc1 | 0.599 µM
42 | O=c1cc(-c2ccccc2Cl)oc2c(NS(=O)(=O)c3cccs3)ccc(O)c12 | inactive
43 | CCc1ccc2n(-c3ccc(OC)cc3)c([S-])c(C(=O)Nc3cc(C)cc(C)c3)[n+]2c1 | 2.71 µM
44 | O=C(COC(=O)c1cc(Br)ccc1O)Nc1cccnc1Cl | 2.58 µM
45 | O=[N+]([O-])c1ccc(NCc2ccccc2)c2nonc12 | 1.2 µM
46 | O=C(COC(=O)c1sc2cc(F)ccc2c1Cl)Nc1ncc(Cl)cc1Cl | > 40 µM (inactive)
47 | Cc1ccc2nc(/C(C#N)=C/c3ccc(-c4ccccc4C(=O)O)o3)[nH]c2c1 | inactive
48 | C=CCn1c(C)c(/C=C/c2cc[n+](C)cc2)c2ccccc21 | 9.96 µM
49 | C/C(=N\N(Cc1ccccc1)c1ccccc1)c1ccncc1 | 6.97 µM
50 | Cc1nc2cc(NC(=O)CSc3nc4c(C)cccc4cc3C#N)ccc2s1 | 5.93 µM
51 | COc1ccc(C(=O)Nc2ccccc2-c2nnn(CC(N)=O)n2)cc1 | inactive
52 | CCc1cc2cc3c(cc2nc1SCC(=O)Nc1nnc(C)s1)OCCO3 | 5.32 µM
53 | Cc1coc(NC(=O)CSc2nc(-c3ccc(Cl)cc3)cc(C(F)(F)F)c2C#N)n1 | inactive
54 | Cc1cc2cc3c(=O)[nH]c(=O)[nH]c3nc2cc1C | 3.34 µM
